Reference: the supplement of paper PMC4954754
± gives the uncertainty stated by the source.

Experiments:
Conditions in all cases: 18 h
HEK293T-Rex ERSE-FLuc [1] = assay: EC50 for ERSE-FLuc reporter activation
Procedure: (§1)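 Dose-response of hit compounds in HEK293T-Rex cells stably expressing ERSE-FLuc or XBP1-RLuc reporters, 18 hr treatment, 1536-well; luminescence normalised to 500 nM thapsigargin (100%) and DMSO (0%), fitted to give EC50 (M) and maximal activation; '>' marks EC50 above the top tested dose (~17 µM).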

HEK293T-Rex XBP1-RLuc [2] = assay: EC50 for XBP1-RLuc reporter activation
Procedure: as §1

HEK293T-Rex XBP1-RLuc [3] = assay: maximal XBP1-RLuc activation from dose-response fit, relative to thapsigargin (% of thapsigargin); higher = stronger activation
Procedure: as §1

HEK293T-Rex ERSE-FLuc [4] = assay: maximal ERSE-FLuc activation from dose-response fit, relative to thapsigargin (% of thapsigargin); higher = stronger activation
Procedure: as §1

Row | Compound | EC50 for ERSE-FLuc reporter activation (HEK293T-Rex ERSE-FLuc [1]) | EC50 for XBP1-RLuc reporter activation (HEK293T-Rex XBP1-RLuc [2]) | maximal XBP1-RLuc activation (HEK293T-Rex XBP1-RLuc [3]) | maximal ERSE-FLuc activation (HEK293T-Rex ERSE-FLuc [4])
1 | Cc1cc(C)nc(/N=C(\N)Nc2ccc(OCc3ccc(Cl)cc3)cc2)n1 | > 14 µM | 2.03 µM | 88.2 ± 3.4 | 47.3 ± 7.6
2 | Cc1ccc(Nc2nc(N)c3ccccc3n2)cc1Cl | 10 µM | > 16.9 µM | 48.1 ± 5.2 | 111 ± 7.9
3 | O=C(/C=C/c1ccccc1)Nc1ccc(Cl)cn1 | > 18.6 µM | > 18.6 µM | 2.19 ± 0.65 | 22.1 ± 7
4 | O=C1NC(=Nc2ccccc2)S/C1=C/c1ccc(O)c(O)c1 | 6.2 µM | > 15.4 µM | 38.5 ± 6.1 | 83.8 ± 12
5 | NC(=O)c1c(NC(=O)COc2ccccc2)sc2c1CCC2 | > 13.2 µM | > 13.2 µM | 2.55 ± 0.7 | 16.2 ± 1.4
6 | Cc1cc(C)nc(/N=C(\N)Nc2ccc(OCCC(C)C)cc2)n1 | > 15.5 µM | > 5.17 µM | 89.1 ± 9.1 | 45.3 ± 7.7
7 | COc1ccc(Nc2nccn3c(-c4ccsc4)cnc23)cn1 | > 16.9 µM | > 16.9 µM | 8.52 ± 2.1 | 23.1 ± 0.89
8 | O=C(N/N=C/c1cccc(O)c1O)c1ccccn1 | > 18.4 µM | > 18.4 µM | 20.3 ± 1.1 | 25.7 ± 1.9
9 | CN(C)c1ccc(/C=C(/C#N)C(=O)Nc2ccc(O)cc2)cc1 | > 16.9 µM | > 16.9 µM | 31 ± 2.4 | 29.9 ± 4.7
10 | O=C(CC(=O)Nc1ccc2nc3n(c(=O)c2c1)CCCCC3)NCc1ccco1 | 8.59 µM | > 16.9 µM | 40.7 ± 7.4 | 77.9 ± 9.8
11 | COc1ccccc1-c1cnnc(N/N=C/c2c[nH]c3ccccc23)n1 | > 16.9 µM | > 16.9 µM | 29.8 ± 2.1 | 49.9 ± 8.2
12 | CC(=O)Oc1ccc(C(=O)OCc2ccc(Cl)cc2)cc1OC(C)=O | > 18.6 µM | > 18.6 µM | 24.7 ± 3.7 | 40.4 ± 4.3
13 | Cc1ccc(/C=N/NC(=O)c2cccc(Cl)c2)cc1 | > 16.9 µM | > 16.9 µM | 3.19 ± 1.2 | 36.9 ± 7.8
14 | N#CC1=C(N)Oc2c(ccc3ccccc23)C1c1ccccc1 (configuration not stated) | > 16.9 µM | > 16.9 µM | 7.34 ± 1.6 | 15.5 ± 0.4
15 | CCOc1cc(/C=C2/NC(=O)N(c3cccc(Cl)c3)C2=O)ccc1O | > 16.9 µM | 11.9 µM | 61.4 ± 9.7 | 47.5 ± 4.4
16 | CNC(=O)c1ccccc1Nc1cc(NC(=O)Cc2ccc(F)c(F)c2)ncc1C(F)(F)F | > 16.9 µM | > 16.9 µM | 2.4 ± 1.1 | 3.28 ± 7.2
17 | Cc1nn(-c2ccc(F)cc2)c2ncc(C(=O)NCc3ccco3)c(Cl)c12 | 15.3 µM | 12.6 µM | 151 ± 6.8 | 63.1 ± 4.8
18 | Oc1ccc(-c2csc(-c3cccnc3)n2)cc1O | 7.5 µM | 12.8 µM | 80.1 ± 5.1 | 71.5 ± 11
19 | O=C(N/N=C/c1cccc(Cl)c1Cl)c1ccccc1O | > 16.9 µM | > 16.9 µM | 2.04 ± 0.65 | 6.19 ± 0.61
20 | O=C(N/N=C/c1ccc(Cl)cc1Cl)c1ccc(O)c(O)c1 | > 16.9 µM | > 16.9 µM | 47 ± 2.7 | 32.6 ± 8
21 | CCOc1cccc(C(=O)Nc2ccc(Br)cn2)c1 | > 15.1 µM | > 15.1 µM | 4.18 ± 0.09 | 23.3 ± 2.1
22 | Nc1ccc2nc(-c3ccc(Br)cc3)[nH]c2c1 | 12.5 µM | 17.3 µM | 51.4 ± 4.2 | 74.6 ± 19

Row | Compound | EC50 for ERSE-FLuc reporter activation (HEK293T-Rex ERSE-FLuc [1]) | EC50 for XBP1-RLuc reporter activation (HEK293T-Rex XBP1-RLuc [2]) | maximal XBP1-RLuc activation (HEK293T-Rex XBP1-RLuc [3]) | maximal ERSE-FLuc activation (HEK293T-Rex ERSE-FLuc [4])
23 | CN(C)c1ccc(C(=NO)c2ccc(N(C)C)cc2)cc1 | > 17.1 µM | > 17.1 µM | 7.51 ± 2.8 | 21.7 ± 4.1
24 | OCCNc1nc(Nc2ccc(Br)cc2)nc2ccccc12 | 4.93 µM | 7.94 µM | 57 ± 8.1 | 132 ± 7.4
25 | CCCNC(=O)c1cc(-c2ccc(F)cc2)on1 | 12 µM | > 16.9 µM | 11.7 ± 3.2 | 65.8 ± 6.4
26 | Cc1cc2nc(-c3ccc(SCC#N)nc3)[nH]c2cc1C | > 16.9 µM | > 16.9 µM | 8.52 ± 0.53 | 20.4 ± 3.8
27 | Cc1cc(C)c2nc3sc(C(=O)N4CCCCC4)c(N)c3cc2c1 | > 16.9 µM | > 16.9 µM | 13.4 ± 1.4 | 34 ± 5.5
28 | N#CC1=C(N)Oc2c(ccc3ccccc23)C1c1ccsc1 (configuration not stated) | > 18.3 µM | > 18.3 µM | 5.3 ± 5 | 21.2 ± 5.6
29 | O=C(/C=C/c1ccccc1)Nc1ccc(Br)cn1 | > 13.7 µM | > 13.7 µM | 4.36 ± 3.2 | 26.2 ± 3.8
30 | O=C(NCCc1ccc(O)cc1)c1ccc2nc(-c3csc4ccccc34)sc2c1 | 11.6 µM | 13.3 µM | 105 ± 13 | 99.4 ± 20
31 | O=C1/C(=C/c2ccc(O)c(O)c2)Oc2cc(O)ccc21 | > 16.9 µM | > 16.9 µM | 24.1 ± 2.3 | 46.2 ± 4.5
32 | Nc1c(C(=O)Nc2ccccc2)sc2nc3c(cc12)CCCCC3 | > 16.5 µM | > 16.5 µM | 15.7 ± 1.2 | 29.8 ± 4.8
33 | Cc1ccc(O)c(N/C=C/C(=O)c2cccs2)c1 | 5.29 µM | 10 µM | 56.5 ± 2.8 | 225 ± 15
34 | NN1C(=O)/C(=C/c2ccc(O)c(O)c2)SC1=S | 11.7 µM | > 16.9 µM | 33.2 ± 4.3 | 53.7 ± 2.2
35 | Oc1ccc(/C=N/Nc2cccc3cccnc23)c(O)c1 | > 16.9 µM | 9.41 µM | 53.6 ± 5.7 | 36.6 ± 4.9
36 | Cc1cccc2c1[nH]c1nc(N/N=C\c3c[nH]c4ccccc34)nnc12 | > 16.9 µM | > 16.9 µM | 32.4 ± 5.6 | 41.7 ± 12
37 | O=C1N/C(=C/c2ccc(O)cc2)C(=O)N1c1cccc(Cl)c1 | 3.19 µM | 3.04 µM | 100 ± 3 | 85.8 ± 20
38 | CC(=O)NC1C(OC2OC(CC(O)C3OC(n4ccc(=O)[nH]c4=O)C(O)C3O)C(O)C(O)C2NC(=O)/C=C\CCCCCCCCCC(C)C)OC(CO)C(O)C1O (configuration not stated) | 0.521 µM | > 16.9 µM | 45 ± 4.9 | 139 ± 19
39 | O=C1N/C(=C\c2ccc(O)cc2)C(O)=C1C=NCc1ccccc1 | > 16.9 µM | 2.96 µM | 74.2 ± 4.9 | 40.4 ± 7.5
40 | Nc1nc(Nc2ccccc2)cc(-c2ccccc2)n1 | > 17.2 µM | > 17.2 µM | 3.36 ± 1.2 | 25.8 ± 9.6
41 | O=[N+]([O-])c1ccc(/C=C/c2ccc(O)cc2)cc1 | > 15.3 µM | 12.4 µM | 53.3 ± 4.7 | 25.8 ± 4.6
42 | NC(=O)c1c(NC(=O)c2cccc3ccccc23)sc2c1CCC2 | > 16.9 µM | > 16.9 µM | 23.1 ± 6.4 | 21.9 ± 5.8
43 | Cc1ccc(O)c(NC(=O)CCc2ccccc2)c1 | 4.16 µM | > 16.9 µM | 26.1 ± 0.67 | 107 ± 12
